The values that follow come from a melting point compilation (Tetko et al.; mined from patent text by program, amines drawn as free bases though some values may be those of a salt).

A word on the melting point: it is the temperature of the solid-liquid transition. On to `COc1cc([N+](=O)[O-])ccc1-c1ccc(-c2ccc([N+](=O)[O-])cc2OC)o1`, for which the melting point lay within 308 to 310 °C. For `CNC(=S)NS(=O)(=O)c1cc2c(cc1C)OCC(NC(=O)c1cc(Cl)ccc1OC)C2` (stereo unspecified) the value was 207 to 208 °C.

The molecule `CCN1C(=O)CCCc2cc(Nc3ncc(Cl)c(Nc4ccccc4OC)n3)c(OC)cc21` showed a melting point of 78 to 80 °C. For `C=CCN(CC)C(=O)n1cnc(S(=O)(=O)CC)n1` the value was 39 to 41.5 °C; for `COC1=Nc2c(C)ccnc2N(C2CC2)c2ncccc21`, 191 to 192 °C; for `COc1ccc(CSC2CNC(=O)C2)cc1` (stereo unspecified), 95 to 96 °C. The figure for `NC(=O)c1c(-c2ccccc2)csc1O` is 108 to 110 °C; for `Clc1c(CBr)ccc2c(Cl)c(CBr)ccc12` it is 219 to 221 °C; for `CCc1c(C(=O)c2cc(C)cc(C)c2)n(CC2=CC(CO)C(CO)C2)c(=O)[nH]c1=O` (stereo unspecified) it is 79 to 80 °C. The figure for `CC(C)(C)c1cc(C(=O)c2ccsc2)cc2c1OCC2(C)C` is 89 to 90 °C; for `Cc1nc(N2CCC[C@H]2CO)c2nc(-c3ccccc3)cc-2[nH]1` it is 255 to 256 °C; for `O=C(O)CCCCC(=NOCc1ccc(OCc2nc(-c3ccccc3)no2)cc1)c1ccccc1` it is 91 to 92 °C. On to `O=C(O)CCN1CCN(C2=Nc3ccccc3Cc3ccccc32)CC1`, for which the melting point fell in the range of 140 to 141 °C. Molecule `COC(=O)c1nsc(N)n1` registered a melting point of 202 to 205 °C. The figure for `CCCCCCCCCCCCCCCCOc1coc(C(=O)O)cc1=O` is 126 to 130 °C; for `CC(=N)Nc1cccc(C(=N)N)c1` it is 263 to 265 °C; for `CCOC(=O)c1nnc2ccc([N+](=O)[O-])cc2c1O` it is 294 to 296 °C. For `CC(=O)Nc1cccc2c1C1(COc3cc4c(cc31)OCCO4)C(=O)N2C` (stereo unspecified) the value was 182 to 184 °C; for `CCC(C)(NC(=O)c1cc(Cl)c(N)c(Cl)c1)C(=O)CCl` (stereo unspecified), 134 to 138 °C; for `O=C(O)CCCNC(=O)c1ccccc1SSc1ccccc1C(=O)NCCCC(=O)O`, 165 to 166 °C.

In turn, `Cc1c(C(=O)Nc2ccc(N3CCC(N4CCOCC4)CC3)c(C#N)c2)cnn1-c1ccc(Cl)c(Cl)c1` registered a melting point of 242 °C. In the case of `COc1ccc(CBr)cc1S(=O)(=O)NC(C)(C)C`, the melting point fell in the range of 137 to 142 °C. For `CCOP(=O)(OCC)C(C)c1cn(C(c2ccccc2)(c2ccccc2)c2ccccc2)cn1` (stereo unspecified) the value was 124 to 126 °C; for `O=C(NCCCn1ccnc1)c1ccccc1NS(=O)(=O)c1ccc(I)cc1`, 162 to 166 °C. In turn, `CCc1cccc2c3c([nH]c12)C(CC)(CC(N)=O)OCC3` (stereo unspecified) displayed a melting point of 189 to 190 °C. On to `CC(=O)NC1CN(CCN2CCOCC2)S(=O)(=O)c2sc(S(N)(=O)=O)cc21` (stereo unspecified), for which the melting point fell in the range of 110 to 112 °C. For `C=CCc1c(C)ccc(N2C(=O)c3ccccc3C2=O)c1O` the value was 178 to 180 °C. For `Cc1cc(-c2cc(CN3CCN(C)CC3)c(=O)n(Cc3ccccc3Cl)n2)ccc1F` the value was 150 to 151 °C; for `COC(=O)C(C)(C)c1ccc(OCCN)cc1`, 108 to 112 °C; for `Cc1c(OCC(O)CN2CCOCC2)noc1-c1ccccc1` (stereo unspecified), 94 to 95 °C.

`CC(=O)c1ccc(N)c(C#N)c1Cl`: the melting point is 189 to 193 °C. The figure for `COC(=O)C1(CCN(C)C)c2ccccc2N(C)c2ccc(Cl)cc21` (stereo unspecified) is 106 °C; for `O=C(Cn1nnc2ccccc21)Nc1ccc(-n2nc(C(F)(F)F)c(Cl)c2C2CC2)nc1` it is 182 to 189 °C; for `COC1C(CO)OC(n2c3ccc(CO)cc3c3c4c(c5c6cc(CO)ccc6[nH]c5c32)C(=O)NC4=O)C(O)C1O` (stereo unspecified) it is greater than 300 °C. The figure for `CCCN(c1nc(-c2ccc(OC)cc2Cl)c(C)s1)c1cc([N+](=O)[O-])ccc1OC` is 97 °C. The figure for `COc1cc(O)c2c(=O)[nH]c(-c3cc(C)c(O)c(C)c3)nc2c1` is 291 to 293 °C; for `COc1cc(C2CCN(C[C@H](O)CO)CC2)ccc1Nc1ncc2ccc(-c3ccccc3OC)n2n1` it is 66 to 80 °C; for `NNC(=O)c1ccc2ncccc2c1` it is 193 to 194 °C.

Turning to `COCOc1ccccc1-c1cc(-c2ccc(C(=O)O)cc2)c(C#N)c(NC(=O)c2cccs2)n1`, the melting point was 205 to 206 °C. The molecule `C=CCS(=O)(=O)c1ncc(Cl)cn1` gave a melting point of 84 °C. The figure for `CSC(Nc1cccnc1)=C(C#N)S(=O)(=O)c1ccc(Cl)cc1` is 181 to 182 °C.

As to `c1csc(-c2cnc(-c3cccs3)o2)c1`, the melting point was in the range of 64.5 to 66 °C. As to `ClC(Cl)(Cl)c1nsc(N2CCCC2)n1`, the melting point lay in the range of 106 to 107 °C. For `c1csc(-c2ccc3nncn3n2)c1` the value was 155 to 159 °C; for `O=C1CCCCCCCCCCC=CCCCCCCCCCCC1O` (stereo unspecified), 78 °C.

On to `CC(C)(C)CC(SC1CCCCC1)c1c(O)cc(-c2ccccc2)oc1=O` (stereo unspecified), for which the melting point was greater than 225 °C. For `Cc1c(NC(=O)c2ccc(OCC3CC3)cc2)ccc2[nH]c(CNC3CCCC3)cc12` the value was 207 to 208 °C; for `O=C(C1CC1)N1CCC2(CC1)OCCO2`, 72 to 74 °C; for `Cc1ccc(S(=O)(=O)OCC2Cc3cc(Cl)cc(-c4ccccc4)c3O2)cc1` (stereo unspecified), 127 to 130 °C. The figure for `Cc1ccc(S(=O)(=O)OCCC2Cc3ccccc3O2)cc1` (stereo unspecified) is 51 to 54 °C; for `Cn1c(=O)cc(CN2CCC(c3c[nH]c4ccccc34)CC2)c2ccccc21` it is 228 to 229 °C. The figure for `CC(=O)N1CCC(c2ccc(S(=O)(=O)Cl)cc2)CC1` is 133 to 134 °C; for `Cc1cc(-c2ccnc(C(N)=O)c2)n(-c2ccc(F)cc2)n1` it is 168 to 170 °C; for `Cc1cc(-c2cc3cc(OCCNC[C@H](O)COc4ccccc4)ccc3o2)no1` it is 144 to 146 °C. Molecule `Cc1c(-c2ccc(F)cc2)c(-c2ccccc2)nn1C(C)C` displayed a melting point of 135 to 137 °C. The figure for `Cc1ccc(-c2cc(C(F)F)nn2-c2ccc(S(N)(=O)=O)c(F)c2)cc1Cl` is 160 to 161 °C; for `OCc1cc2ccc3ccc4ccccc4c3c2o1` it is 125 to 126 °C. `CC(C)(O)c1ccoc1C(=O)c1[nH]c2cc(Cl)ccc2c1CC(=O)O`: the melting point lay within 229 to 230 °C. Regarding `CCc1cc(C(=O)Nc2ccccc2)on1`, the melting point was in the range of 122 to 124 °C. For `COC(=O)c1ccc(-c2nc(-c3c(F)c(F)c(F)c(F)c3F)cs2)cc1` the value was 141 to 142 °C. On to `COC(=S)NC[C@H]1CN(c2cc(F)c(N3CNC(=O)C3)c(F)c2)C(=O)O1`, for which the melting point is 199 °C.

As for `COCCCS(=O)(=O)NC(=O)CCc1ccc(OCCOC)cc1Oc1ncc(C(F)(F)F)cc1Cl`, the melting point was in the range of 112 to 113 °C. Molecule `CC(C#N)c1ccc2c(=O)c3ccccc3ccc2c1` (stereo unspecified) yielded a melting point of 108 to 109 °C.

In turn, `O=Cc1c2cccc(Cl)c2c(Cl)c2c(Cl)cccc12` came in with a melting point of 118 to 120 °C. For the molecule `CON=CCCCn1c(C)nc2c(N)nc3ccccc3c21`, the melting point was 153 to 155 °C. For `C[Si](C)(C)C#Cc1ccc2c(c1)C1(c3ccccc3-c3ccccc31)c1cc(C#C[Si](C)(C)C)ccc1-2` the value was 267 to 269 °C; for `Cc1ccc(C(=O)C(C#N)C#N)cc1`, 163 °C; for `CC(=O)Nc1sc(-c2ccc(F)cc2)cc1C(N)=O`, 230 to 233 °C. `Cc1nc(-c2ccc(SC(C)C)c([N+](=O)[O-])c2)sc1C(=O)O` yielded a melting point of 233 to 235 °C.

The molecule `COc1ccc(C(O)CN2CCN(C(c3ccccc3)c3ccccc3)CC2)c(OC)c1` (stereo unspecified) gave a melting point of 116 °C. For `CC1(C)C(=O)Oc2ccc3cc(N)c(Cn4cncn4)cc3c21`, the melting point is 160 to 163 °C. On to `COc1ccc(CC(N)(C#N)CF)cc1OC` (stereo unspecified), for which the melting point was determined as 76 °C.

In the case of `COC(=O)c1ccccc1S(=O)(=O)NC(=O)Nc1nc(N(C)C)c2nc(C)c(C)nc2n1`, the melting point is 196 °C. The figure for `COC(=O)c1ccc2c(c1C(=O)OC)OCO2` is 57 to 59 °C. For `O=c1oc2ccc(-c3ccc(F)cc3F)cc2c(=O)n1-c1ccc(F)cc1F`, the melting point lay in the range of 155 to 156 °C.

In turn, `Cc1cc(C(C)N(O)C(N)=O)ccc1Cl` (stereo unspecified) came in with a melting point of 129 to 131 °C. For `COc1cc2ccc(C)cc2c(C)c1OC` the value was 68 to 69 °C.

`O=C(Nc1cc2ncc(CN3CCCC3)cc2cc1F)c1ccc(-c2ccc(Cl)cc2)cc1F` yielded a melting point of 217 to 219 °C. Take `NC(=O)c1cccc(OCc2ccc(F)cc2)c1`: the melting point lay within 161 to 162 °C. For `C[C@@H](NC(=O)c1cnn(-c2ccc(Cl)cc2)c1C1CC1)[C@](O)(Cn1cncn1)c1ccc(F)cc1F` the value was 181 to 182 °C. In turn, `NS(=O)(=O)c1cccc(C=NO)c1` displayed a melting point of 107 to 108 °C. `Cc1cccc(CCOc2ccc(C=C3SC(=O)NC3=O)cc2)n1` gave a melting point of 180 to 182 °C. `COc1cccc(CNC(=O)c2nc3sc(C(N)=O)c(C)c3c(=O)[nH]2)c1`: the melting point came out at 258 °C. The figure for `CC(C)(C=C(Cl)Cl)C(=O)Nc1ccc(Cl)cc1` is 131 to 134 °C; for `CCCCCCCCCCCCCCCCCCCCCCOc1ccc(C(=O)OCC)cc1` it is 56.5 to 59.5 °C; for `CC(=O)OCC[C@H](NC(=O)C(F)(F)F)C(=O)O` it is 134 to 136 °C.

As to `CC(C)n1cc2c3c(cccc31)C1CC(C(=O)NC3CCCC3O)CN(C)C1C2` (stereo unspecified), the melting point fell in the range of 232 to 234 °C.

`COc1ccc(C2CC(c3ccc(OC)c(OC)c3)=NN2c2ccc(C(=O)O)cc2)cc1` (stereo unspecified) returned a melting point of 141 °C. For `CC(C)(C)c1cc(/C=C/c2n[nH]c(=S)s2)cc(C(C)(C)C)c1O` the value was 248 to 249 °C; for `COC(=O)c1cc(CCCCc2c(N)nc(N)nc2O)cs1`, 185 to 186 °C. The figure for `O=C(O)CCSC(c1ccccc1)(c1ccccc1)c1ccccc1` is 205 to 208 °C.
